Structures can show the parent of a compound that is named as a salt.
Tested on: NQO1 specific enzyme activity in BEAS-2B cells
Test: BEAS-2B NQO1 MTT assay
Assay type: cell-based
Details: BEAS-2B cells, 48 hours with compound, MTT readout; read-out: EC50 of NQO1 specific activity induction
Source text: NAD(P)H:quinone oxidoreductase 1 (NQO1), also called DT diaphorase, is a homodimeric FAD-containing enzyme that catalyzes obligatory NAD(P)H-dependent two-electron reductions of quinones and protects cells against the toxic and neoplastic effects of free radicals and reactive oxygen species arising from one-electron reductions. The transcription of NQO1 is finely regulated by NRF2, and thus NQO1 activity is a good marker for NRF2 activation. On day one, frozen BEAS-2B cells (ATCC) are thawed in a water bath, counted, and re-suspended at a concentration of 250,000 cells/mL. Fifty microliters of cells are plated in 384 well black clear-bottomed plates. Plates are incubated at 37° C., 5% CO2 overnight. On day two, plates are centrifuged and 50 nL of compound or controls are added to the cells. Plates are then incubated at 37° C., 5% CO2 for 48 hours. On day four, medium is aspirated from the plate and crude cell lysates are made by adding 13 uL of 1× Cell Signaling Technologies lysis buffer with 1 Complete, Mini, EDTA-free Protease Inhibitor Tablet (Roche) for each 10 mL of lysis buffer. After lysis plates are incubated for 20 minutes at room temperature. Two microliters of lysate are removed for use in Cell Titer Glo assay (Promega) and MTT cocktail is prepared (Prochaska et. al. 1998) for measurement of NQO1 activity. Fifty microliters of MTT cocktail is added to each well, plate is centrifuged, and analyzed on an Envision plate reader (Perkin Elmer) using Absorbance 570 nm label for 30 minutes. Product formation is measured kinetically and the EC50 of NQO1 specific activity induction is calculated by plotting the change in absorbance (Delta OD/min) versus the log of compound concentration followed by 3-parameter fitting.

Row | Compound | EC50 [nM]
1 | CCC1CCN(Cc2nccn2Cc2cc(C(CCc3cn(CC)nn3)C(C)(C)C(=O)O)ccc2C)CC1 (single isomer, unassigned) [Example 249, 5-(1-ethyl-1H-1,2,3-triazol-4-yl)-3-(3-((2-((4-ethylpiperidin-1-yl)methyl)-1H-imidazol-1-yl)methyl)-4-methylphenyl)-2,2-dimethylpentanoic Acid] | 1 to 10
2 | CC[C@@H]1CN(Cc2cc(C(CCc3cn(CC)nn3)C(C)C(=O)O)ccc2C)Cc2ccccc2O1 (single isomer, unassigned; isomer 1) [Example 118] | 1000 to 10000
3 | CC[C@@H]1CN(Cc2cc([C@H](c3ccc4c(nnn4CC)c3C)[C@H](C)C(=O)O)ccc2C)Cc2ccccc2O1 [Example 199, (2S,3R)-3-(3-(((R)-2-Ethyl-2,3-dihydrobenzo[f][1,4]oxazepin-4(5H)-yl)methyl)-4-methylphenyl)-3-(1-ethyl-4-methyl-1H-benzo[d][1,2,3]triazol-5-yl)-2-methylpropanoic acid] | 10 to 100
4 | CC[C@@H]1CN(Cc2cc([C@H](c3ccc4c(nnn4CC)c3C)[C@H](C)C(=O)O)ccc2C)Cc2ccccc2O1 [Example 101, Ammonium (2S,3R)-3-(3-(((R)-2-ethyl-2,3-dihydrobenzo[f][1,4]oxazepin-4(5H)-yl)methyl)-4-methylphenyl)-3-(1-ethyl-4-methyl-1H-benzo[d][1,2,3]triazol-5-yl)-2-methylpropanate] | < 1
5 | CC[C@@H]1CN(Cc2cc(C(CCc3cn(CC)nn3)C(C)(C)C(=O)O)ccc2C)Cc2ncccc2O1 (single isomer, unassigned) [Example 251] | 1 to 10

Same assay, conditions: Homo sapiens, BEAS-2B, 48 h, BEAS-2B cells, 48 hours with compound, MTT readout; read-out: EC50 of NQO1 specific activity induction

Row | Compound | EC50 [nM]
6 | CC[C@@H]1CN(Cc2cc([C@@H](c3ccc4c(nnn4C)c3C)C(C)(C)C(=O)N3CCSC3=O)ccc2C)Cc2cnccc2O1 [Example 256, 3-((S)-3-(1,4-Dimethyl-1H-benzo[d][1,2,3]triazol-5-yl)-3-(3-(((R)-2-ethyl-2,3-dihydropyrido[3,4-f][1,4]oxazepin-4(5H)-yl)methyl)-4-methylphenyl)-2,2-dimethylpropanoyl)thiazolidin-2-one, Trifluoroacetic Acid Salt] | 10 to 100
7 | Cc1ccc(C(c2ccc3c(nnn3C)c2C)C(C)(C)C(=O)O)cc1CN1CCOc2ccccc2C1 (stereo not drawn) [Example 44, 3-(3-((2,3-Dihydrobenzo[f][1,4]oxazepin-4(5H)-yl)methyl)-4-methylphenyl)-3-(1,4-dimethyl-1H-benzo[d][1,2,3]triazol-5-yl)-2,2-dimethylpropanoic Acid, Formic Acid Salt] | 10 to 100
8 | Cc1ccc(C(CC(=O)O)c2ccc3c(nnn3C)c2C)cc1CN1Cc2ccc(Br)cc2O[C@@H](C)C1 (stereo partly drawn) [Example 93, 3-(3-(((S)-8-bromo-2-methyl-2,3-dihydrobenzo[f][1,4]oxazepin-4(5H)-yl)methyl)-4-methylphenyl)-3-(1,4-dimethyl-1H-benzo[d][1,2,3]triazol-5-yl)propanoic Acid, Formic Acid Salt] | 1 to 10
9 | CC[C@@H]1CN(Cc2cc(C(c3ccc4c(nnn4C)c3C)C(C)(C)C(=O)O)ccc2C)Cc2ccc(F)cc2O1 (stereo partly drawn) [Example 33, 3-(1,4-Dimethyl-1H-benzo[d][1,2,3]triazol-5-yl)-3-(3-(((R)-2-ethyl-8-fluoro-2,3-dihydrobenzo[f][1,4]oxaz-epin-4(5H)-yl)methyl)-4-methylphenyl)-2,2-dimethylpropanoic acid, formic acid salt] | 10 to 100
10 | Cc1ccc(C(c2ccc3c(nnn3C)c2C)C(C)(C)C(=O)O)cc1CN1CCCc2ccccc2C1 (stereo not drawn) [Example 104, 3-(3-((4,5-Dihydro-1H-benzo[c]azepin-2(3H)-yl)methyl)-4-methylphenyl)-3-(1,4-dimethyl-1H-benzo[d][1,2,3]triazol-5-yl)-2,2-dimethylpropanoic acid] | 1 to 10
11 | CC[C@@H]1CN(Cc2cc([C@H](CC(=O)O)c3ccc4c(nnn4CC)c3F)ccc2C)Cc2ccccc2O1 (relative stereo) [compound 182, rel-(S)-3-(3-(((R)-2-Ethyl-2,3-dihydrobenzo[f][1,4]oxazepin-4(5H)-yl)methyl)-4-methylphenyl)-3-(1-ethyl-4-fluoro-1H-benzo[d][1,2,3]triazol-5-yl)propanoic acid] | 100 to 1000
12 | CCn1nnc2c(Cl)c([C@H](CC(=O)O)c3ccc(C)c(CN4Cc5ccccc5OC(C)(C)C4)c3)ccc21 [Example 55, (R)-3-(4-Chloro-1-ethyl-1H-benzo[d][1,2,3]triazol-5-yl)-3-(3-((2,2-dimethyl-2,3-dihydrobenzo[f][1,4]oxazepin-4(5H)-yl)methyl)-4-methylphenyl)propanoate, Sodium salt] | 10 to 100
13 | CCCC1CN(Cc2cc(C(CC(=O)O)c3ccc4c(nnn4C)c3C)ccc2C)Cc2ccccc2O1 (stereo not drawn) [Example 71, 3-(1,4-dimethyl-1H-benzo[d][1,2,3]triazol-5-yl)-3-(4-methyl-3-((2-propyl-2,3-dihydrobenzo[f][1,4]oxazepin-4(5H)-yl)methyl)phenyl)propanoic Acid, Formic Acid Salt] | 100 to 1000
14 | CC[C@@H]1CN(Cc2cc(C(c3ccc4c(nnn4C)c3C)C(C)(C)C(=O)O)ccc2C)Cc2cc(F)ccc2O1 (stereo partly drawn) [Example 32, 3-(1,4-Dimethyl-1H-benzo[d][1,2,3]triazol-5-yl)-3-(3-(((R)-2-ethyl-7-fluoro-2,3-dihdyrobenzo[f][1,4]oxaz-epin-4(5H)-yl)methyl)-4-methylphenyl)-2,2-dimethylpropanoic acid, formic acid salt] | 1 to 10
15 | Cc1ccc(C(CC(=O)O)c2ccc3c(nnn3C)c2C)cc1Cc1cnnn1CC1CCCCC1 (stereo not drawn) [Example 128, 3-(3-((1-(Cyclohexylmethyl)-1H-1,2,3-triazol-5-yl)methyl)-4-methylphenyl)-3-(1,4-dimethyl-1H-benzo[d][1,2,3]triazol-5-yl)propanoic acid] | 1000 to 10000
16 | CCC1CN(Cc2cc([C@H](c3ccc4c(nnn4C)c3C)C(C)C(=O)O)ccc2C)Cc2ccccc2O1 (stereo partly drawn) [Example 102, (3R)-3-(1,4-dimethyl-1H-benzo[d][1,2,3]triazol-5-yl)-3-(3-((2-ethyl-2,3-dihydrobenzo[f][1,4]oxazepin-4(5H)-yl)methyl)-4-methylphenyl)-2-methylpropanoic Acid] | < 1
17 | Cc1ccc([C@@H](c2ccc3c(nnn3C)c2C)C(C)(C)C(=O)O)cc1Cn1ccnc1CN1CCCCC1 [Example 150, (S)-3-(1,4-Dimethyl-1H-benzo[d][1,2,3]triazol-5-yl)-2,2-dimethyl-3-(4-methyl-3-((2-(piperidin-1-ylmethyl)-1H-imidazol-1-yl)methyl)phenyl) propanoic acid] | < 1
18 | CC[C@@H]1CN(Cc2cc([C@H](CC(=O)O)c3ccc4c(nnn4C)c3C)ccc2C)Cc2ccccc2O1 [Example 49, (S)-3-(1,4-Dimethyl-1H-benzo[d][1,2,3]triazol-5-yl)-3-(3-(((R)-2-ethyl-2,3-dihydrobenzo[f][1,4]oxazepin-4(5H)-yl)methyl)-4-methylphenyl)propanoic Acid, Formic Acid Salt] | 100 to 1000
19 | Cc1ccc(C(CC(=O)O)c2ccc3c(nnn3C)c2C)cc1Cn1ccnc1CN1CCCC1 (stereo not drawn) [Example 153, 3-(1,4-Dimethyl-1H-benzo[d][1,2,3]triazol-5-yl)-3-(4-methyl-3-((2-(pyrrolidin-1-ylmethyl)-1H-imidazol-1-yl)methyl)phenyl)propanoic Acid, Formic Acid Salt] | 1000 to 10000
20 | CCC1CCN(Cc2nccn2Cc2cc(C(c3ccc4c(nnn4C)c3C)C(C)(C)C(=O)O)ccc2C)CC1 (stereo not drawn) [Example 140, 3-(1,4-Dimethyl-1H-benzo[d][1,2,3]triazol-5-yl)-3-(3-((2-((4-ethylpiperidin-1-yl)methyl)-1H-imidazol-1-yl)methyl)-4-methylphenyl)-2,2-dimethylpropanoic acid, formic acid salt] | 1000 to 10000
21 | CC[C@@H]1CN(Cc2cc([C@@H](CC(=O)O)c3ccc4c(nnn4C)c3C)ccc2C)Cc2cnccc2O1 [Example 43, (R)-3-(1,4-Dimethyl-1H-benzo[d][1,2,3]triazol-5-yl)-3-(3-(((R)-2-ethyl-2,3-dihydropyrido[3,4-f][1,4]oxazepin-4(5H)-yl)methyl)-4-methylphenyl)propanoic Acid, Formic Acid Salt] | 1000 to 10000
22 | Cc1ccc(C(c2ccc3c(nnn3C)c2C)C(C)(C)C(=O)O)cc1Cn1ccnc1CN1CCCC1 (stereo not drawn) [Example 124, 3-(1,4-Dimethyl-1H-benzo[d][1,2,3]triazol-5-yl)-2,2-dimethyl-3-(4-methyl-3-((2-(pyrrolidin-1-ylmethyl)-1H-imidazol-1-yl)methyl)phenyl)propanoate, Sodium salt] | 10 to 100
23 | Cc1ccc(C(CC(=O)O)c2ccc3c(nnn3C)c2C)cc1Cn1cnc(CC2CCCCC2)c1 (stereo not drawn) [Example 136, 3-(3-((4-(Cyclohexylmethyl)-1H-imidazol-1-yl)methyl)-4-methylphenyl)-3-(1,4-dimethyl-1H-benzo[d][1,2,3]triazol-5-yl)propanoic Acid] | 10 to 100

Same assay, conditions: Homo sapiens; BEAS-2B cells, 48 hours with compound, MTT readout; read-out: EC50 of NQO1 specific activity induction

Row | Compound | EC50 [nM]
24 | CC[C@@H]1CN(Cc2cc([C@@H](c3ccc4c(nnn4C)c3C)C(C)(C)C(=O)OCOP(=O)(O)Oc3ccccc3)ccc2C)Cc2cnccc2O1 [Example 254] | 1 to 10

Source: patent US10604509B2, “Nrf2 regulators” (GlaxoSmithKline Intellectual Property Development Limited, priority 2015, dated 2020)
